Key:
[1] = Stability assessed as cyclization activation in phosphate buffer at pH 7.4 by HPLC; type: physicochemical
[2] = Stability assessed as cyclization activation in phosphate buffer at pH 6.0 by HPLC; type: physicochemical
[3] = Stability assessed as formation of ((2R,3S,5R)-5-(5-fluoro-2,4-dioxo-3,4-dihydropyrimidin-1(2H)-yl)-3-hydroxytetrahydrofuran-2-yl)methyl 3-(aminooxy)-2,2-dimethylpropanoate in phosphate buffer at pH 7.4 in presence of alpha-chymotrypsin; type: ADME
[4] = Stability in phosphate buffer at pH 7.4 in absence of alpha-chymotrypsin; type: ADME

Cl.NOCCC(=O)OC[C@H]1O[C@@H](n2cc(F)c(=O)[nH]c2=O)C[C@@H]1O
half-life [1]: 1.14 h | half-life [2]: 22.9 h

CC(C)(CONC(=O)[C@H](Cc1ccccc1)NC(=O)OCc1ccccc1)C(=O)OC[C@H]1O[C@@H](n2cc(F)c(=O)[nH]c2=O)C[C@@H]1O
t1/2 [3]: 0.608 h | Stability [4]: Stable

CC(C)(CON)C(=O)OC[C@H]1O[C@@H](n2cc(F)c(=O)[nH]c2=O)C[C@@H]1O.Cl
half-life [1]: 0.722 h | half-life [2]: 23.4 h

From ChEMBL document CHEMBL1143278, “3-Aminoxypropionate-based linker system for cyclization activation in prodrug design” (Bioorg Med Chem Lett, 2009)
